Reference: patent US20230312550A1, “N-(2-(4-CYANOTHIAZOLIDIN-3-YL)-2-OXOETHYL)-QUINOLINE-4-CARBOXAMIDES” (AstraZeneca AB, priority 2020, published 2023)
≈ marks a conversion by molar mass, not a printed value.

How the values were obtained:
[1] = molecular target: human Fibroblast activation protein alpha (hFAP) (Homo sapiens (Human), UniProt Q12884); assay: hFAP inhibition assay (tight binders); format: biochemical; details: Ala-Pro-AMC 20 μM, n = 1 or geometric mean n = 2-6; also: hFAP 2.4 pM
Procedure: The plates were read on a PHERAstar® reader with excitation 340 nm and emission 460 nm. Data were analyzed in Genedata Screener®. IC50 values were determined by plotting % inhibition versus log compound concentration and using a one site dose response model.

[2] = physchem; details: kinetic from dmso stock
Procedure: Kinetic solubility was measured as described in Comput Aided Mol Des 2015, 29, 795.

[3] = in vitro; details: human, Caco-2
Procedure: Caco-2 cell permeability was measured as described in Mol Pharm 2017, 14, 1601.

[4] = molecular target: Prolyl endopeptidase, Prolyl Oligopeptidase (hPREP) (Homo sapiens (Human), UniProt P48147); assay: hPrep inhibition assay; format: biochemical; details: hPREP 0.6 nM, Z-Gly-Pro-amino-methylcoumarin 50 μM; read-out: PREP IC50
Prolyl endopeptidase, Prolyl Oligopeptidase (hPREP), sequence (P48147 whole entry): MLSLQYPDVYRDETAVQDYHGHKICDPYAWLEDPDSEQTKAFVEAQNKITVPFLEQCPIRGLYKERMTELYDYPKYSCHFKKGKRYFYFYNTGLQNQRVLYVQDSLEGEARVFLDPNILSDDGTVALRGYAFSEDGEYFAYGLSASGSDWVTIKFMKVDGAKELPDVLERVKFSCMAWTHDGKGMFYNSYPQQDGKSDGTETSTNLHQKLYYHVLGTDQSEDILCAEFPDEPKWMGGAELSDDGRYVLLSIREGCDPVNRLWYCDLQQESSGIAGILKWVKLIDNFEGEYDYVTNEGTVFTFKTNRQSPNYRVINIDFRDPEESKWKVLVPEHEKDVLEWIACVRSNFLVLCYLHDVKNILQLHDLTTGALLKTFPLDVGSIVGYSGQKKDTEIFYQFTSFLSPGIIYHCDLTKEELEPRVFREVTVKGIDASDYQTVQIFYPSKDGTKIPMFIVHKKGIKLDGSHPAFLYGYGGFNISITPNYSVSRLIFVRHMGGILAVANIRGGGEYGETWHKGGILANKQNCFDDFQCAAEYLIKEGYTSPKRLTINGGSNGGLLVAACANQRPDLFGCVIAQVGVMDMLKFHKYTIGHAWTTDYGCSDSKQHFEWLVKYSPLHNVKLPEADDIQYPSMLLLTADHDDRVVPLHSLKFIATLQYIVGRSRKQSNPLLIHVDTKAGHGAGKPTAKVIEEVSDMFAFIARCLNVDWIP
Method in brief: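 Recombinant human PREP at 0.6 nM final with Z-Gly-Pro-AMC substrate at 50 μM final in Tris-HCl pH 7.5, NaCl, Triton X-100, glutathione; 15 min rt preincubation then 20 min rt reaction in dark. AMC fluorescence (ex 340/em 460 nm); IC50 from one-site dose-response fit of % inhibition.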

[5] = in vitro; details: human, microsomes, HLM CLint
Procedure: Metabolic stability in HLM was measured as described in J Comput Aided Mol Des 2015, 29, 795.

[6] = molecular target: hFAP (M39-A757) (Homo sapiens (Human), UniProt Q12884); assay: hFAP binding assay (surface plasmon resonance); details: SPR, 20° C.; for hFAP Binding assay k(off) / hFAP Binding assay k(on): single cycle kinetics; for Kd: n = 1 or geometric mean n = 2-4
hFAP (M39-A757), sequence (Q12884 39-757): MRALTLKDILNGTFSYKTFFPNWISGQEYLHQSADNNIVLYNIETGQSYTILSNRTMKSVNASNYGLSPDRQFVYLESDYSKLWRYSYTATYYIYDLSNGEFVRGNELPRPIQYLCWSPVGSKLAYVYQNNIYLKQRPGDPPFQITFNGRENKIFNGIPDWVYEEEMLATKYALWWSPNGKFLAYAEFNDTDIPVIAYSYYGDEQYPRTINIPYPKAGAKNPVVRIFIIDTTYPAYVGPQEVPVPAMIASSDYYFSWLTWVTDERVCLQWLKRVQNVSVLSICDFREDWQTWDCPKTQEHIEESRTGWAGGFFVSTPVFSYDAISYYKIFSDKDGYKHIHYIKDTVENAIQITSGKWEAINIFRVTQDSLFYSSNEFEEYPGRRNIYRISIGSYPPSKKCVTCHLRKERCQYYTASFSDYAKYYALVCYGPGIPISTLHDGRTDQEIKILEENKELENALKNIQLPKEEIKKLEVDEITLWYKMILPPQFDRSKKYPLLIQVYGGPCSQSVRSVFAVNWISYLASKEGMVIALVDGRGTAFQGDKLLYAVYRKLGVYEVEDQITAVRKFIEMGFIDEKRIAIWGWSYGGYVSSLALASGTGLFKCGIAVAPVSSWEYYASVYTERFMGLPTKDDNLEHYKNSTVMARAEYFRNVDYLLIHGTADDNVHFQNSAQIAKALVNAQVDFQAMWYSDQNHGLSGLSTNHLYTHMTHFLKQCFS
Procedure: Compounds were tested in a direct binding assay using 8K surface plasmon resonance biosensor (GE Healthcare) at 20° C. Immobilization of hFAP (M39-A757) on a CMD200M sensor chip (Xantec) was performed using standard amine coupling procedure in immobilization buffer (10 mM HEPES, 150 mM NaCl, 0.05% Tween20, pH 7.4). The surface was washed with 10 mM NaOH, 1M NaCl before being activated with EDC/NHS (GE Healthcare), followed by immobilization of hFAP (in 10 mM Acetate pH 5.0). Finally, the surface was deactivated by ethanolamine. Immobilization levels of hFAP were around 4000-6000 RU. The reference spot was treated as described, omitting the injection of hFAP. Compound concentration series were injected over the immobilized protein in increasing concentrations (2-500 nM) using single cycle kinetics in running buffer (20 mM TRIS, 150 mM NaCl, 0.05% Tween20, 1% DMSO, pH 7.4). Interaction models were fitted globally to the experimental traces, enabling determination of kon, koff and Kd.

[7] = rat, hepatocytes
[8] = molecular target: human dipeptidylpeptidase 7 (hDPP7) (Homo sapiens (Human), UniProt Q9UHL4); assay: hDPP7 inhibition assay; format: biochemical; details: hDPP7 15 nM, Ala-Pro-amino-methylcoumarin 5 μM, n = 1
Procedure: Compounds were tested in a biochemical inhibition assay using human dipeptidylpeptidase 7 (hDPP7) enzyme at 15 nM FAC (BPS Bioscience, #80070) and the substrate Ala-Pro-amino-methylcoumarin (BPS Bioscience, #80305) at 5 μM FAC. The enzymatic reactions were conducted in duplicate at rt for 30 min in 50 μL DPP assay buffer (BPS Bioscience, #80300). Compound solutions (in DMSO) at 10 CR, 3 fold dilution series were prepared in assay buffer ten-fold higher than the final concentration, and 5 μL of the dilution was added to a 50 μL reaction so that the highest compound concentration was 100 μM FAC and the concentration of DMSO was 1% in all wells. The plates were read on a Tecan Infinite M1000 microplate reader with excitation 340 nm and emission 460 nm. Data were analyzed in Graph Pad Prism. IC50 values were determined by plotting % inhibition versus log compound concentration and using a one site dose response model. Raw data signals were normalized using 1% DMSO as 0% control and no enzyme as 100% inhibitor control.

[9] = molecular target: Fibroblast Activation Protein alpha (FAP) (Mus musculus (Mouse), UniProt P97321); assay: in vivo
Fibroblast Activation Protein alpha (FAP), sequence (P97321 24-761): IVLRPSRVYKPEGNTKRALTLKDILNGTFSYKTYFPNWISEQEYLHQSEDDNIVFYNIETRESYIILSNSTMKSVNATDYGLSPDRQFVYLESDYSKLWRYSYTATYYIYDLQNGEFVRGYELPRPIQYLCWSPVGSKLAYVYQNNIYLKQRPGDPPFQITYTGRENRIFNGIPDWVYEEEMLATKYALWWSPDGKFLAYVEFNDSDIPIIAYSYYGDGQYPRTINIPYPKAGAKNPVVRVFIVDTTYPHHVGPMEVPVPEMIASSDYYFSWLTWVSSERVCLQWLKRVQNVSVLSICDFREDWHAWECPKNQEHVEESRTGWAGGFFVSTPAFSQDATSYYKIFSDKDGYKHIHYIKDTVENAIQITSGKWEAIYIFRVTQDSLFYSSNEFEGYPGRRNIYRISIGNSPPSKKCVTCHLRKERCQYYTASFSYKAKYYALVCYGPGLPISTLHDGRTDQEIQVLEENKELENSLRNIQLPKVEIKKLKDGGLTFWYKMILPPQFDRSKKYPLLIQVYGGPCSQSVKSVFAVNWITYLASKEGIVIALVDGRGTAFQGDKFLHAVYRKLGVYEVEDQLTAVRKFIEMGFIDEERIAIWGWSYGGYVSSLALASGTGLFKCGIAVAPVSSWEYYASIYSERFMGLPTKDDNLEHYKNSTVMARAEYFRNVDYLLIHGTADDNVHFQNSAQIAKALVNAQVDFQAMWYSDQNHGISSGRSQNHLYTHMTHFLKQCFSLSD
Procedure: The effect of test compound on FAP enzyme activity in mouse plasma was evaluated in an enzymatic assay using the Fibroblast Activation Protein alpha (FAP) specific fluorogenic substrate dipeptide-Coumarin, Ala-Pro-AMC, (ARI-3144).
Male C57Bl/6 mice (Charles River, Germany), 8 weeks of age, were single housed in a temperature-controlled room with a 12-hour light/dark cycle (06:00-18:00 light). The mice had ad libitum access to water and rodent chow diet (R70, Lactamin, Kimstad, Sweden), and were acclimated for 5 days upon arrival. After acclimation, all mice received a single oral dose of test compound (3 or 10 mg/kg). Blood samples for whole blood compound exposure measurements were taken at 0.25, 0.5, 1, 2, 4, 8 and 24 h post oral dosing. Samples were collected in EDTA capillary tubes (20 μL, K2E, REF 19.447) and were transferred to a 96-deep well plate (NUNC, Thermo Discher Scientific) and stored at −20° C. until further analyses were performed. Blood samples for plasma FAP enzyme activity measurements were taken at 0, 0.25, 0.5, 1, 2, 8 and 24 h post dosing. 25 μL of whole blood was collected in EDTA Microvette® CB 300 (K2E, REF 16.444.100) tubes, and were centrifuged at 4,000×g for 5 min. 10 μL of plasma was then transferred to PCR tubes and stored at −20° C. until further analysis was performed. All blood samples were taken by vena saphena puncture.
Recombinant human FAP (PB-17-1837, construct PL-17-0278, cd33-FAP (27-757)-6His, Mw85926 Da) was used as a standard for this assay. […] The plates were read on a Beckman Paradigm reader with excitation 360 nm and emission 465 nm. Fluorescence measurements were performed with kinetic read every 5 minutes for 60 min at room temperature. Data were analyzed in Excel (IDBS XLfit Add-In) using a Linear Regression (y=k*x+m) model to prepare a human recombinant FAP standard curve.
On the day of the assay, plasma was diluted (1:2) to 20 μL volume in buffer (PBS, 0.1% BSA) and 7.5 μL was transferred to the assay plate (384-well black, fluotrack PS, Greiner 781076). Ala-Pro-AMC (stock solution in 10 mM DMSO) was diluted in buffer (PBS, 0.1% BSA) to 150 μM concentration (180 μL stock solution to 12 mL buffer) and 7.5 μL added to the assay plate followed by a pipetting mix. The plates were read on a Beckman Paradigm reader with excitation 360 nm and emission 465 nm. Fluorescence measurements were performed with kinetic read every 5 minutes for 60 minutes at room temperature. As noted above, FAP cleaves Ala-Pro-AMC to release free AMC which is measured as a fluorescent signal.
The in vivo potency IC50 of each test compound was then estimated by relating the plasma exposure C of the compound to target engagement E in plasma using the following equation:
where E0 is the FAP baseline in plasma prior to dosing and Imax is the maximum effect of the compound. Data from each target engagement experiment were considered separately and therefore slightly different estimates of FAP baseline for each compound were obtained. […] The parameter estimation was done in Phoenix WinNonlin Certara build 8.1.0.3530 with the algorithm ‘Naïve pooled’ as parameter estimation method.

[10] = molecular target: human dipeptidylpeptidase 9 (hDPP9) (Homo sapiens (Human), UniProt Q86TI2); assay: hDPP9 inhibition assay; format: biochemical; details: hDPP9 0.4 nM, Ala-Pro-amino-methylcoumarin 5 μM, n = 1
human dipeptidylpeptidase 9 (hDPP9), sequence (Q86TI2 whole entry): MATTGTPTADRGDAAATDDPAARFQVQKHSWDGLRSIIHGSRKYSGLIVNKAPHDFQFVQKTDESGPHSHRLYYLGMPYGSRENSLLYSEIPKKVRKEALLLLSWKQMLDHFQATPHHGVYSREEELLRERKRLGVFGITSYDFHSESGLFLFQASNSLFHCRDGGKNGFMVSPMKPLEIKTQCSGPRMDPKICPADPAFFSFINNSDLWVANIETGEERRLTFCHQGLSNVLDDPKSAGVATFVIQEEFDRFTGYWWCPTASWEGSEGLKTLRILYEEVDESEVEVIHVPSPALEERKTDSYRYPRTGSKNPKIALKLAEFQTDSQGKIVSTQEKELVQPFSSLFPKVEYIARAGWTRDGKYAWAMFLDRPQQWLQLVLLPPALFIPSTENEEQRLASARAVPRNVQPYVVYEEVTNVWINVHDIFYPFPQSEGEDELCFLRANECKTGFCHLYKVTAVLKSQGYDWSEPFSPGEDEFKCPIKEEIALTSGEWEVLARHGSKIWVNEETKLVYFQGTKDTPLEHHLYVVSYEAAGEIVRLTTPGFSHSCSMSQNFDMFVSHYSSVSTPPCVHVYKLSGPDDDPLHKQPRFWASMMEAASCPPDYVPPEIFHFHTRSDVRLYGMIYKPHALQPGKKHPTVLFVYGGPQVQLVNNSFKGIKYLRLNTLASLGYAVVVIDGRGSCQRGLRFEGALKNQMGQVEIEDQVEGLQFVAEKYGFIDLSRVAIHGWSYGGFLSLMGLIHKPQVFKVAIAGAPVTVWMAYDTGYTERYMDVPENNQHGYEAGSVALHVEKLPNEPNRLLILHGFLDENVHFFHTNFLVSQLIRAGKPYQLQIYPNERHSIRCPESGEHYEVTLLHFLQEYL
Procedure: (§1) Compounds were tested in a biochemical inhibition assay using human dipeptidylpeptidase 9 (hDPP9) enzyme at 0.4 nM FAC (BPS Bioscience, #80090) and the substrate Ala-Pro-amino-methylcoumarin (BPS Bioscience #80305) at 5 μM FAC. The enzymatic reactions were conducted in duplicate at rt for 30 min in 50 μL DPP assay buffer (BPS Bioscience, #80300). […] The plates were read on a Tecan Infinite M1000 microplate reader with excitation 340 nm and emission 460 nm. Data were analyzed in Graph Pad Prism. IC50 values were determined by plotting % inhibition versus log compound concentration and using a one site dose response model. Raw data signals were normalized using 1% DMSO as 0% control and no enzyme as 100% inhibitor control.

[11] = molecular target: FAP (Mus musculus (Mouse), UniProt P97321); assay: FAP plasma inhibition assay, mouse plasma; format: biochemical; details: mouse plasma diluted 1:67, Ala-Pro-AMC 75 μM
FAP (Mus musculus (Mouse), UniProt P97321), sequence (P97321 24-761): as the sequence (P97321 24-761) above
Method in brief: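 K2EDTA plasma served as enzyme source, human diluted 1:40 and mouse 1:67, in PBS with 0.1% BSA. Compounds ran as a 10-point 3-fold series from 500 nM final, in duplicate, 40 min at rt in the dark, with fluorescence read against a pre-substrate blank. IC50 came from % inhibition versus log concentration.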

[12] = molecular target: human dipeptidylpeptidase 8 (hDPP8) (Homo sapiens (Human), UniProt Q6V1X1); assay: hDPP8 inhibition assay; format: biochemical; details: Ala-Pro-amino-methylcoumarin 5 μM, n = 1
human dipeptidylpeptidase 8 (hDPP8), sequence (Q6V1X1 whole entry): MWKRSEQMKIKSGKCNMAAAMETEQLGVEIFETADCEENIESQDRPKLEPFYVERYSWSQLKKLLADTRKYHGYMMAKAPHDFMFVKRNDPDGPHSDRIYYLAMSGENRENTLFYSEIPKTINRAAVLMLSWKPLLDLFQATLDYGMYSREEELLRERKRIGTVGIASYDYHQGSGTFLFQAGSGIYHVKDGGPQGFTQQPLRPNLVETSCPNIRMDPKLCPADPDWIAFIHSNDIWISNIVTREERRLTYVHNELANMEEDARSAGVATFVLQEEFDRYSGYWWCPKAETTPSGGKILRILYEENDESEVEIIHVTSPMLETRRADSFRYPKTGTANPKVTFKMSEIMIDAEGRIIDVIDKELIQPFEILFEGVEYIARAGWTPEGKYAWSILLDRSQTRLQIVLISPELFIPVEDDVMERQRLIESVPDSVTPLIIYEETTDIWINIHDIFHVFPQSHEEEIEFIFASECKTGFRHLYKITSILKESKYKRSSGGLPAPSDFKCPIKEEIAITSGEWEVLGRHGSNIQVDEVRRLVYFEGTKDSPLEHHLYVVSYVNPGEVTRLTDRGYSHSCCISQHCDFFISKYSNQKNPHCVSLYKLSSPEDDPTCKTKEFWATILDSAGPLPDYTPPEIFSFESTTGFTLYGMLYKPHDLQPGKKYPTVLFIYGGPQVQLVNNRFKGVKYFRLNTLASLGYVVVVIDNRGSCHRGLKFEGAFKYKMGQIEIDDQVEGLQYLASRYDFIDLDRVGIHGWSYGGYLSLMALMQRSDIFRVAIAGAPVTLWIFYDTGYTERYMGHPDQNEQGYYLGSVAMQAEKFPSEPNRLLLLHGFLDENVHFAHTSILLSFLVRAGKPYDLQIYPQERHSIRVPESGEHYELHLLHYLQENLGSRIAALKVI
Procedure: as §1, with “The” for “Compounds were tested in a biochemical inhibition assay using human dipeptidylpeptidase 9 (hDPP9) enzyme at 0.4 nM FAC (BPS Bioscience, #80090) and the substrate Ala-Pro-amino-methylcoumarin (BPS Bioscience #80305) at 5 μM FAC. The”

[13] = molecular target: FAP (Homo sapiens (Human), UniProt Q12884); assay: hFAP inhibition assay; format: biochemical; details: hFAP […], Ala-Pro-AMC 20 μM; n = 1 or geometric mean n = 2-3
FAP (Homo sapiens (Human), UniProt Q12884), sequence (Q12884 38-760): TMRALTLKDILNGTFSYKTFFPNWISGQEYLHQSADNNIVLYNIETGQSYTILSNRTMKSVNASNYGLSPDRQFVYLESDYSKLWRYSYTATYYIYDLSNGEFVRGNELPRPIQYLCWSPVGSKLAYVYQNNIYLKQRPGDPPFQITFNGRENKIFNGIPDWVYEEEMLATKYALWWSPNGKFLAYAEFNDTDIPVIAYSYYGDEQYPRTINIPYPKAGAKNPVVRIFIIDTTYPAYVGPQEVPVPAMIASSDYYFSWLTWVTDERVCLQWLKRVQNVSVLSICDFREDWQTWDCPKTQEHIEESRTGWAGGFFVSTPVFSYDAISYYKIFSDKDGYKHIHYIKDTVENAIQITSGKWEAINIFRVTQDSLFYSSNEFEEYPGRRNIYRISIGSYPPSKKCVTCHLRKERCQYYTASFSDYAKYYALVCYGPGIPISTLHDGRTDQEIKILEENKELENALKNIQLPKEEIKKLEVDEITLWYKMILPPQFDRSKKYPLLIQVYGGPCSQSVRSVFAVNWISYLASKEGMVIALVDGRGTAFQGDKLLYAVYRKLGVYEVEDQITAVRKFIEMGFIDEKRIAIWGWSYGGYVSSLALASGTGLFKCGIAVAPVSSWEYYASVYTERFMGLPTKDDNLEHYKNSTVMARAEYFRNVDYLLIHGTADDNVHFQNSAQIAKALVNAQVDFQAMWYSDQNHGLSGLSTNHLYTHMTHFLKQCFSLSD
Method in brief: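 Human FAP (0.48 nM) in 100 mM Tris HCl, 100 mM NaCl, 0.05% Chaps, pH 7.4 was preincubated 15 min at rt in the dark with compounds (10-point, 3-fold series from 50 μM). Substrate was added from a 40 μM solution, then 30 min at rt. Fluorescence read at ex 340/em 460 nm; IC50 from one-site dose-response fit of % inhibition.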

human Fibroblast activation protein alpha (hFAP), sequence (Q12884 38-760): as above

SMILES | IC50 [1] [nM] | solubility [2] [µM] | Papp A→B [3] [×10⁻⁶ cm/s] | Papp B→A [3] [×10⁻⁶ cm/s] | efflux ratio [3] | IC50 [4] [nM] | microsomal CLint [5] [µL/min/mg] | hFAP Binding assay k(off) [6] [s⁻¹] | hFAP Binding assay k(on) [6] [M⁻¹ s⁻¹] | Kd [6] [nM] | rHep CLint [7] [μL/min/1E6] | IC50 [8] [nM] | IC50 [9] [nM] | IC50 [10] [nM] | IC50 [11] [nM] | IC50 [12] [nM] | IC50 [13] [nM]
N#C[C@@H]1CSCN1C(=O)CNC(=O)c1ccnc2ccc(N3CC4CC(C3)O4)cc12 [Example 77, 6-(6-Oxa-3-azabicyclo[3.1.1]heptan-3-yl)-N-(2-((R)-4-cyanothiazolidin-3-yl)-2-oxoethyl)quinoline-4-carboxamide] | 0.051 | 850 (≈ 360 µg/mL) | 0.57 | 16 | 29 | 470 | 7.1 | 0.000066 | 4800000 | 0.014 | 5.4 |  |  |  |  |  | 
C[C@@H]1CN(c2ccc3nccc(C(=O)NCC(=O)N4CSC[C@H]4C#N)c3c2)C[C@H](C)O1 [Example 68, N-(2-((R)-4-Cyanothiazolidin-3-yl)-2-oxoethyl)-6-((2R,6S)-2,6-dimethylmorpholino)-quinoline-4-carboxamide] |  |  |  |  |  | 1700 |  | 0.00011 | 1000000 |  |  | > 100000 | 19 | 1500 | 0.5 | 6600 | 
C[C@@H]1CN(c2ccc3nccc(C(=O)NCC(=O)N4CSC[C@H]4C#N)c3c2)C[C@@H](C)O1 [Example 70, N-(2-((R)-4-Cyanothiazolidin-3-yl)-2-oxoethyl)-6-((2R,6R)-2,6-dimethylmorpholino)-quinoline-4-carboxamide] |  |  |  |  |  | 1100 |  | 0.00014 | 5400000 |  |  | > 100000 |  | 1400 | 0.3 | 4700 | 
N#C[C@@H]1CSCN1C(=O)CNC(=O)c1ccnc2ccc(N3C4CCC3CC4)cc12 [Example 209, (R)-6-(7-Azabicyclo[2.2.1]heptan-7-yl)-N-(2-(4-cyanothiazolidin-3-yl)-2-oxoethyl)quinoline-4-carboxamide] | 0.15 | 970 (≈ 409 µg/mL) |  |  |  | 540 | 170 | 0.000042 | 3200000 | 0.02 | 52 |  |  |  |  |  | 0.44
N#C[C@@H]1CSCN1C(=O)CNC(=O)c1ccnc2ccc(N3C4CCCC3COC4)cc12 [Example 86, 6-(3-Oxa-9-azabicyclo[3.3.1]nonan-9-yl)-N-(2-((R)-4-cyanothiazolidin-3-yl)-2-oxoethyl)quinoline-4-carboxamide] | 0.074 | 640 (≈ 289 µg/mL) |  |  |  | 360 | 160 | 0.000058 | 730000 | 0.081 | 44 |  |  |  |  |  | 
